Structures can show the parent of a compound that is named as a salt. Each block holds one compound with its values, some of them ahead of it.
What was measured:
[1] = Stability of HPLC sample solution in refrigerated autosampler; format: physicochemical; conditions: 1 mg/mL in 50 mM sodium perchlorate monohydrate, pH 4.00; 4±2° C.
Protocol: (§1) Ceftolozane sulfate samples are prepared at a concentration of 1 mg/mL in diluent (50 mM sodium perchlorate monohydrate, pH 4.00). The system suitability standard (SST) is prepared at a concentration of 1 mg/mL of ceftolozane sulfate containing specified impurities in diluent (50 mM sodium perchlorate monohydrate, pH 4.00). Ceftolozane samples and SST are stored in a refrigerated autosampler tray at 4±2° C. and the samples are only stable for 5 hours at this condition.

[2] = Ceftolozane precipitation time as function of solution concentration (visual assessment); format: physicochemical; conditions: pH 6.9, 2 to 8° C.
Protocol: Sterile ceftolozane compositions suitable for combination with tazobactam to form a pharmaceutical composition are prepared as a lyophilized powder from the ceftolozane sulfate comprising solid Form 2 by compounding the drug substance with excipients into an aqueous solution, aseptically filtering the solution, lyophilizing the solution, then grinding, sieving and packaging the sterile lyophilized powder. The physical stability of the bulk solution at varying concentrations was examined and concentrations up to 150 mg ceftolozane free base/g solution were found suitable. All the registration batches were prepared using 150 mg/g ceftolozane concentration in the compounding solution and this concentration is proposed for commercial manufacturing. The resulting ceftolozane composition solubility was assessed in a concentration range proposed for manufacturing, in the presence of excipients intended for use in the ceftolozane formulation for use in the pharmaceutical composition. […] Samples were adjusted to pH 6.9, held at 2 to 8° C., and visually assessed for any precipitation.

[3] = Comparative ceftolozane solvent stability test (purity by HPLC over 6 days); format: physicochemical
Excerpt: This stability study was to evaluate stability and purity of ceftolozane sulfate in different solvent systems.
Sample 1 was a solvent system used to prepare crystalline ceftolozane sulfate from a mixture of isopropanol and water, as described in Example 2b (in the absence of ethanol). Sample 2 was solvent system used to obtain crystalline ceftolozane sulfate prepared according to the procedure of U.S. Pat. No. 7,129,232, wherein the crystals were precipitated from a mixture of ethanol and water.
Sample 1 and sample 2 were maintained for 6 days (as described in Example 2a, with continuous stirring). The purity of ceftolozane in the samples in each solvent system was measured by HPLC at day 0, day 3, and day 6.
as §1
Each sample is prepared in singlet and injected twice. Only impurities >LOD (0.008% Area) are integrated. The peak area percentage for each impurity >LOD is taken directly from the chromatogram. The mean % area of each peak is calculated and the absolute difference of any peak in the two replicates cannot be >0.030%. The purity and related substances are determined based on relative area % of each peak with respect to the total peak area of the sample. The total impurities are the sum of the individual impurities >LOD.

[4] = Gravimetric dynamic vapour sorption (moisture sorption/desorption, hygroscopicity); format: physicochemical; conditions: 25° C.
Protocol: Gravimetric dynamic vapor sorption data (FIG. 5) was obtained using a SMS DVS Intrinsic moisture sorption analyser, controlled by DVS Intrinsic Control software v1.0.0.30. The sample temperature was maintained at 25° C. by the instrument controls. The humidity was controlled by mixing streams of dry and wet nitrogen. The relative humidity was measured by a calibrated Rotronic probe, located near the sample. The weight change of the sample as a function of % RH was constantly monitored by the microbalance (accuracy ±0.005 mg). Approximately 40 mg of sample was placed in a tared mesh stainless basket under ambient conditions. Weight reference was established at the start of an experiment. Moisture sorption isotherm parameters were described as below: [table] The moisture sorption/desorption property of crystalline cefolozane sulfate form 2 is depicted in FIG. 5. A reversible hysteresis associated with around 23% w/w water between 0% and 90% relative humidity (RH) was observed. The DVS isotherm in FIG. 5 is consistent with the presence of two crystalline forms that can be interconverted as function of relative humidity. The presence of ceftolozane sulfate solid Form 1 and ceftolozane sulfate solid Form 2 in the sample tested to obtain the DVS isotherm in FIG. 5 was confirmed by a variable humidity XRPD (VH-XRPD) measurement, based on the XRPD diffraction angles disclosed for Form 1 and Form 2 of ceftolozane sulfate (as disclosed herein). Referring to DVS the isotherm plot in FIG. 5, the lower curve corresponds to ceftolozane sulfate in solid Form 2, and the upper curve is corresponds to ceftolozane sulfate in solid Form 1. The Y-axis of the DVS plot is change in mass. The X-axis of DVS plot refers to the percent relative humidity (RH) of the sample. Reference point 10 in FIG. 5 is the starting point of Form 2 in DVS experiment. The lower portion of the curve in FIG. 5 was obtained by measuring the change in mass of a ceftolozane sulfate sample in solid Form 2 while increasing relative humidity (RH) in the sample, starting at reference point 10 of the lower curve from reference point 10 (Form 2) and moving toward reference point 20 (Form 1). Based on the data collected, the ceftolozane sulfate in the sample converted from Form 2 to Form 1 when the sample was exposed to conditions between 50% RH (reference point 12) and 70% RH (reference point 15). Referring again to the lower curve in FIG. 5, ceftolozane sulfate in Form 1 is present in the sample from 70% RH to reference point 20, where the sample is ceftolozane sulfate is in crystalline Form 1. Referring to the upper curve in FIG. 5, from reference point 20 to reference point 30, the ceftolozane sulfate in the sample material remains as solid Form 1. From reference point 30 to around 20% RH (reference point 35 on the upper curve), the crystalline form of ceftolozane sulfate in the material transforms from Form 1 to Form 2. As the relative humidity of the sample was dropped below about 20% on the upper curve between reference point 30 and reference point 40 (0% RH), the ceftolozane sulfate became more amorphous, with some residual Form 2 remaining at reference point 40. […] Hygroscopicity of ceftolozane sulfate, Form 2 was assessed using the SMS DVS Intrinsic moisture sorption analyzer equipped with a calibrated Rotronic probe. […]

[5] = Water content by Karl Fischer volumetric titration with Stromboli oven; format: physicochemical; conditions: samples equilibrated at 130° C., mean of triplicate
Protocol: Water content of crystalline ceftolozane sulfate (prepared according to Example 2a as Form 1) was determined using a Mettler Toledo Karl Fischer volumetric titrator V30 that was connected to a Mettler Toledo Stromboli oven sample changer. AquaStar CombiTitrant 5 (EMD; Cat. No. 1.88005.1045; Lot No. 51096) was used as the titrant and the AquaStar Combi-Methanol (EMD; Cat. No 1.88009.1045; Lot No 53046) was used as the solvent. For data processing, the LabX software version 3.1.1.0 was employed. The Hydranal Water Standard for KF-Oven (Fluka; Cat. No. 34693; Lot No. SZBB010AV) that is expected to contain 5% water was weighed accurately in duplicate at or very close to 200 mg. The crystalline ceftolozane sulfate (15-18 mg) was weighed accurately in triplicate in separate 20 mL Stromboli sample vials. The vials were sealed with aluminum seals and rubber caps. A blank vial was prepared by sealing an empty 20-mL Stromboli vial with the aluminum seal and the rubber cap. The blank vial was used to determine the background moisture in air inside the vial. […] The KF titrator passed the accuracy test as the mean of the duplicate readings for the water standard was between the acceptance range of 4.80-5.20%. Water content results for crystalline ceftolozane sulfate derived from the triplicate weighings were recorded and the mean was reported. […]

[6] = format: physicochemical
Protocol: Thermo Gravimetric Analysis (TGA) experiments were performed on a TA Instruments Discovery Series TGA. The calibration for temperature was carried out using certified indium. Typically, 3-15 mg of a sample was flattened into sealed aluminum pans. Data was acquired for samples with and without a pinhole. For samples with a pinhole, once crimped and sealed, the auto-sampler punched the lid of the sample with its internal puncher right before analysis of the sample. Samples were heated at 20° C./min from 30° C. to 400° C. Dry nitrogen was purged into the system during the experiment at a rate of 50 ml/min. The software used to control the instrument was TRIOS Explorer Software v5.3.0.75. TRIOS software v2.40.1838 or v2.04.04563 was used for data analysis.
Thermogravimetric analysis (TGA) and differential scanning calorimetry (DSC) thermograms are shown in FIG. 3 and FIG. 4, respectively. […] The subsequent exotherm in the thermogram is indicative of decompostion that is consistent with the observation in the melting point experiment.

[7] = Melting point experiment (SRS Optimelt), thermal decomposition; format: physicochemical; conditions: scan from 100° C. to 400° C.; decomposed prior to melting
Protocol: Melting point experiment was performed for ceftolozane sulfate form 2 using the SRS Optimelt melting point apparatus. SRS-certified vanillin and phenacetin were used to verify the system performance. The temperature scan from 100° C. to 400° C. was performed for ceftolozane sulfate. The material decomposed prior to melting. The decomposition, as indicated by the distinct change in color, appeared to commence at about 170° C.

time the sample solution is stable [1]: 5 h
Compound: Cn1c(N)c(NC(=O)NCCN)c[n+]1CC1=C(C(=O)O)N2C(=O)[C@@H](NC(=O)/C(=N\OC(C)(C)C(=O)O)c3nsc(N)n3)[C@H]2SC1 [Ceftolozane sulfate, 5-amino-4-{[(2-aminoethyl)carbamoyl]amino}-2-{[(6R,7R)-7-({(2Z)-2-(5-amino-1,2,4-thiadiazol-3-yl)-2-[(1-carboxy-1-methylethoxy)imino]acetyl}amino)-2-carboxy-8-oxo-5-thia-1-azabicyclo[4.2.0]oct-2-en-3-yl]methyl}-1-methyl-1H-pyrazolium monosulfate]

Time to Precipitate ([2]; ceftolozane sulfate 149 mg/g (free base 130 mg/g), with excipients): >24 hours^a
Time to Precipitate ([2]; ceftolozane sulfate 172 mg/g (free base 150 mg/g), with excipients): >48 h
Time to Precipitate ([2]; ceftolozane sulfate 178 mg/g (free base 156 mg/g), last observation at 24 hour): >24 hours^1)
Time to Precipitate ([2]; ceftolozane sulfate 189 mg/g (free base 165 mg/g), with excipients): <18 h
Time to Precipitate ([2]; ceftolozane sulfate 200 mg/g (free base 174 mg/g), with excipients): 2 h
purity of ceftolozane after 6-day stability test ([3]; aqueous ethanol solution, methods of U.S. Pat. No. 7,129,232): about 68%
purity of ceftolozane at start of 6-day stability test ([3]; aqueous ethanol solution, precipitation per U.S. Pat. No. 7,129,232): about 97%
purity of ceftolozane after 6-day stability test ([3]; process using isopropanol (Example 2a), liquid phase): about 82%
Compound: Cn1c(N)c(NC(=O)NCCN)c[n+]1CC1=C(C(=O)[O-])N2C(=O)[C@@H](NC(=O)/C(=N\OC(C)(C)C(=O)O)c3nsc(N)n3)[C@H]2SC1 [Ceftolozane, (6R,7R)-3-[(5-amino-4-{[(2-aminoethyl)carbamoyl]amino}-1-methyl-1H-pyrazol-2-ium-2-yl)methyl]-7-({(2Z)-2-(5-amino-1,2,4-thiadiazol-3-yl)-2-[(1-carboxy-1-methylethoxy)imino]acetyl}amino)-8-oxo-5-thia-1-azabicyclo[4.2.0]oct-2-ene-2-carboxylate]

relative humidity down to which Form 1 transforms to Form 2 ([4]; decreasing RH, from reference point 30): around 20 % RH
Compound: Cn1c(N)c(NC(=O)NCCN)c[n+]1CC1=C(C(=O)O)N2C(=O)[C@@H](NC(=O)/C(=N\OC(C)(C)C(=O)O)c3nsc(N)n3)[C@H]2SC1 [ceftolozane sulfate Form 1]

water content by weight [5]: about 26.3%
Compound: Cn1c(N)c(NC(=O)NCCN)c[n+]1CC1=C(C(=O)O)N2C(=O)[C@@H](NC(=O)/C(=N\OC(C)(C)C(=O)O)c3nsc(N)n3)[C@H]2SC1.O=S(=O)([O-])O [Example 1, 7β-[(Z)-2-(5-amino-1,2,4-thiadiazol-3-yl)-2-(1-carboxy-1-methylethoxyimino)acetamido]-3-{3-amino-4-[3-(2-aminoethyl)ureido]-2-methyl-1-pyrazolio}methyl-3-cephem-4-carboxylic acid hydrogen sulfate]

temperature beyond which degradation likely occurs [6]: > 181 °C
temperature at which decomposition commenced (change in color) [7]: about 170 °C
hygroscopicity ([4]; RH 0 to 90%): hygroscopic
total uptake of water ([4]; at 90% relative humidity, RH 0 to 90%): 23%
reversible hysteresis, water ([4]; between 0% and 90% relative humidity): around 23 % w/w
relative humidity below which the solid became more amorphous ([4]; decreasing RH to 0%, some residual Form 2): below 20%
Compound: Cn1c(N)c(NC(=O)NCCN)c[n+]1CC1=C(C(=O)O)N2C(=O)[C@@H](NC(=O)/C(=N\OC(C)(C)C(=O)O)c3nsc(N)n3)[C@H]2SC1 [ceftolozane sulfate Form 2]

— patent publication US8906898B1, “Solid forms of ceftolozane” (Calixa Therapeutics, Inc., priority 2013, dated 2014)
